Patent publication US11484607B2, “PSMA-targeted NIR dyes and their uses” (On Target Laboratories, LLC, priority 2015, dated 2022)

Experiments:
PSMA on 22Rv1 cells = molecular target: T1, PSMA on 22Rv1 cells (Homo sapiens, UniProt Q04609); experiment: OTL78 relative affinity (IC50) by competition with DUPA-FITC; type: binding; conditions: 100 nM DUPA-FITC, 30 min at 4° C., flow cytometer; read-out: IC50 competing with DUPA-FITC
T1 construct: host or cells: 22Rv1 human prostate cancer cells
Description: In vitro binding: For OTL78 relative affinity (IC50), 22Rv1 or PC3 cells were plated into a T75 flask and allowed to form a monolayer over 48 h. After trypsin digestion, released cells were transferred into centrifuge tubes (1×10^6 cells/tube) and centrifuged. Spent medium in each tube was replaced with 100 nM DUPA-FITC in the presence of increasing concentration (0.001 nM-10 μM) of OTL78 in fresh medium (0.5 mL). After incubating for 30 min at 4° C., cells were rinsed with culture medium (2×1.0 mL) and saline (1×1.0 mL) to remove any unbound DUPA-FITC. Cells were then re-suspended in saline (0.5 mL) and cell bound fluorescence was quantified using a flow cytometer. The relative affinities were calculated using a plot of percent cell bound fluorescence versus the log concentration of OTL78 using GraphPad Prism 6.

PSMA-negative PC3 cells = experiment: OTL78 binding to PSMA-negative cells, cell bound fluorescence by fluorometer; design: species or system human; conditions: 30 min at 4° C.
Description: For OTL78 binding affinity, 22Rv1 or PC3 cells were seeded into a T75 flask and allowed to form a monolayer over 48 h. After trypsin digestion, cells were transferred into centrifuge tubes (1×10^6 cells/tube) and centrifuged. The medium was replaced with fresh medium containing increasing concentration of OTL78 and incubated for 30 min at 4° C. After rinsing with fresh medium (2×1.0 mL) and saline (1×1.0 mL), cells were lysed with 1% SDS with in saline (1.0 mL) and cell bound fluorescence was analyzed using a fluorometer (Cary Eclipse, Agilent Technologies). The binding affinity (Kd) was calculated using a plot of percent cell bound fluorescence versus concentration using GraphPad Prism 6.

LNCaP tumor xenografts = experiment: OTL78 whole body imaging and tissue biodistribution, subcutaneous tumor; type: in vivo, mice; conditions: 10 nmol, 2 h
Description: Whole body Imaging & Tissue biodistribution: Seven-week-old male nu/nu mice were inoculated subcutaneously with 5.0×106 22Rv1, LNCaP, PC3 or A549 cells/mouse in 50% high concentrated matrigel with RPMI1640 medium on the shoulder. Growth of the tumors was measured in perpendicular directions every 2 days using a caliper (body weights were monitored on the same schedule), and the volumes of the tumors were calculated as 0.5×L×W2 (L=longest axis and W=axis perpendicular to L in millimeters). Once tumors reached approximately 300-400 mm3 in volume, animals (3-5 mice/group) were intravenously injected with appropriate dose of OTL78 in saline.
For whole body imaging and biodistribution studies, animals were euthanized after 2 h of administration of OTL78 by CO2 asphyxiation. For time dependent studies, animals were imaged under anesthesia using isoflurane. Imaging experiments were then performed using IVIS or AMI image systems. Following whole body imaging, animals were dissected and selected tissues were analyzed for fluorescence activity using IVIS or AMI image system and ROI of the tissues were calculated using Living Image 4.0 software or AMIView Image Analysis Software.

22Rv1 tumor xenografts = experiment: Fluorescence-guided surgery of prostate tumors with OTL78; type: in vivo, mice
Description: Growth of the tumors was measured as previously mentioned. After one month, the animals were mixed and divided into 2 groups (n=5 mice/group). Two hours after administering OTL78 (10 nmol in 100 μL saline per mouse), animals were given 1-5% isoflurane for anesthesia and imaged using AMI image system. After an insertion was made using scalpel through the skin, surgical removal of the tumors was performed either following conventional technique (e.g. visualization under white light or palpation) or with the aid of fluorescence guidance (FGS: debulking of visible tumors under conventional method followed by resection of residual fluorescence tissues under image-guided method). After the surgery, the skin was closed using staples and imaged the mice using AMI image system. After imaging, the residual fluorescent tissues from selected mice of conventional surgery group and tissues samples from the tumor beds of selected mice of FGS group were submit for pathological (IHC) analysis. Response to surgical treatment was monitored for over 30 days by imaging using AMI image system 2 h after injecting OTL78 (10 nmol/mouse) and by measuring the growth of the tumor volume using a caliper. Any animal with tumor volume ≥1000 mm3 were euthanized. Tumor-free survival of the mice was documented as % survival vs. time using GraphPad Prism 6. IHC studies were done as explained bellow in the Safety Studies.

[1] = Concentration dependent UV spectrometric study of higher order aggregates; type: physicochemical; conditions: 75 μM in saline
Description: Possible OTL78-related hypersensitivity in human was next examined using basophil activation assay. Drug related hypersensitivity is mainly due to immune response caused by cross-linking of immunoglobulin E (IgE) expressed on mast cells and basophils (FIG. 47D) resulting in activation and subsequent degranulation to release vasoactive amines, prostaglandins, and cytokines (29). Since cross-linking of IgE can be due to aggregates, concentration dependent UV spectrometric studies were conducted to determine higher order aggregates of OTL78.

T1 sequence (Q04609 whole entry): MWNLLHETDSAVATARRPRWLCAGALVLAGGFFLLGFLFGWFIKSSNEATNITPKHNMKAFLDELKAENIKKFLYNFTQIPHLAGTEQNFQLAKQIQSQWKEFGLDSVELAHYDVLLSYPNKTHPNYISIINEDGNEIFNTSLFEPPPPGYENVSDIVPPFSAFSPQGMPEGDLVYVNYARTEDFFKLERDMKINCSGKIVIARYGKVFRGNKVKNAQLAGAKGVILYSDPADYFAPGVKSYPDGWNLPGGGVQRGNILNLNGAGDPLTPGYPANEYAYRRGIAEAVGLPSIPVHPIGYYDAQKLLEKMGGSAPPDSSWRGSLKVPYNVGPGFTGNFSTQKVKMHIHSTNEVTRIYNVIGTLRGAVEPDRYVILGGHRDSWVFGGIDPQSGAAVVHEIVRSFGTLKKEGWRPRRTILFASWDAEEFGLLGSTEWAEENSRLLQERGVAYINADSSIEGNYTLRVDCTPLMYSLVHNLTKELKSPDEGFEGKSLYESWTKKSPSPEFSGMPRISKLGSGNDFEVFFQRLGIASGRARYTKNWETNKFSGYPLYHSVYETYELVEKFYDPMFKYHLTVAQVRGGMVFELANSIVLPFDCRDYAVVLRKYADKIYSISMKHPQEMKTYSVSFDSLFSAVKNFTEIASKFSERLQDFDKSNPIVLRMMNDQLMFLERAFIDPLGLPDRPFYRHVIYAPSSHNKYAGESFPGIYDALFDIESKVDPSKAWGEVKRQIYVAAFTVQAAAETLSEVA

CC1(C)C(/C=C/C2=C(Oc3ccc(C[C@H](NC(=O)[C@H](Cc4ccccc4)NC(=O)CCOCCOCCNC(=O)CC[C@H](NC(=O)N[C@@H](CCC(=O)O)C(=O)O)C(=O)O)C(=O)O)cc3)C(=C/C=C3/N(CCCCS(=O)(=O)O)c4ccc(S(=O)(=O)O)cc4C3(C)C)/CCC2)=[N+](CCCCS(=O)(=O)[O-])c2ccc(S(=O)(=O)O)cc21 [OTL78]
IC50 (PSMA on 22Rv1 cells): 7 nM | binding to PSMA-negative PC3 cells (PSMA-negative PC3 cells): did not bind | accumulation in LNCaP tumors (LNCaP tumor xenografts): accumulated predominantly | time to localize 22Rv1 tumors with high contrast (22Rv1 tumor xenografts; 10 nmol, preoperative images): ≤ 2 h | postoperative residual fluorescence in the tumor bed, FGS cohorts (22Rv1 tumor xenografts; 10 nmol, surgery at 2 h): no significant fluorescence | biochemical recurrence (BCR), FGS cohort (22Rv1 tumor xenografts; monitored for over a month): no sign of BCR | survival, FGS cohorts (22Rv1 tumor xenografts; over 30 days): survived during the study | residual tumors in tumor margin/bed tissues, FGS cohorts (22Rv1 tumor xenografts; pathological analysis): no residual tumors | higher order aggregates (UV spectra), in words [1]: no noticeable higher order aggregates
